Results from ChEMBL document CHEMBL1125961, “Monodeoxy-1,4:3,6-dianhydrohexitol nitrates” (1991).
Active and inactive are the calls of the source. The calls are words filed in the database; no cut-off is given here.

Tests used:
Oryctolagus cuniculus = species on record: Oryctolagus cuniculus; experiment: Compound was evaluated for reduction of arterial medium pressure of rabbit by 30 mm Hg; assay type: functional, Artery
Rattus norvegicus [1] = experiment: Compound was evaluated for T-wave increase of rat EKG measured as percent reduction after 30 min at a dosage of 200 mg/kg; assay type: functional
Rattus norvegicus [2] = experiment: Compound was evaluated for T-wave increase of rat EKG measured as percent reduction after 30 min at a dosage of 4 mg/kg; assay type: functional
Rattus norvegicus [3] = experiment: Compound was evaluated for T-wave increase of rat EKG measured as percent reduction after 30 min at a dosage of 100 mg/kg; NE means no effect; assay type: functional, organism-based; parameters: dose 100 mg/kg
Rattus norvegicus [4] = experiment: Compound was evaluated for T-wave increase of rat EKG measured as percent reduction after 30 min at a dosage of 60 mg/kg; assay type: functional
Rattus norvegicus [5] = experiment: Compound was evaluated for T-wave increase of rat EKG measured as percent reduction after 30 min at a dosage of 8 mg/kg; assay type: functional
[6] = Oryctolagus cuniculus, Artery, read-out: ED30

Row | Structure (SMILES) | ED30 (Oryctolagus cuniculus) | ED30 (Oryctolagus cuniculus; [6]) | other results
1 | O=[N+]([O-])OC1COC2C1OC[C@@H]2Cl (stereo in doubt; 5b) [listing 1 of 2 here] | 0.14 mg/kg |  | 
2 | O=[N+]([O-])OC1COC2CCOC21 (stereo in doubt; 6a) |  | 0.6 mg/kg | Reduction (Rattus norvegicus [1]; 200 mg/kg): -38%
3 | O=[N+]([O-])OC1COC2CCOC21 (stereo in doubt; 6b) | 1 mg/kg |  | Reduction (Rattus norvegicus [1]; 200 mg/kg): -33%
4 | O=[N+]([O-])O[C@H]1CO[C@H]2[C@@H]1OC[C@H]2O[N+](=O)[O-] [ISOSORBIDE DINITRATE] |  | 0.08 mg/kg | Reduction (Rattus norvegicus [2]): -75%
5 | O=[N+]([O-])OC1COC2C1OC[C@@H]2Cl (stereo in doubt; 5b) [listing 2 of 2 here] |  |  | Reduction (Rattus norvegicus [3]): inactive
6 | O=[N+]([O-])OC1CO[C@@H]2C(O)CO[C@H]12 (single isomer, unassigned) [ISOSORBIDE MONONITRATE] | 3.43 mg/kg |  | Reduction (Rattus norvegicus [4]): -43%
7 | O=[N+]([O-])O[C@@H]1CO[C@H]2[C@@H]1OC[C@@H]2O [ISOSORBIDE MONONITRATE] | 0.31 mg/kg |  | Reduction (Rattus norvegicus [5]): -59%
8 | O=[N+]([O-])OC1COC2C1OC[C@@H]2Cl (stereo in doubt; 5a) |  | 0.1 mg/kg | Reduction (Rattus norvegicus [1]): -38%
